A word on the IC50: it is the concentration that gives 50% inhibition. Read a high IC50 as lower potency. What is called EC50 is the concentration needed to bring the measured effect to its halfway point. The low end stands for a more potent agent, the high end for a less potent agent.

The results in this text go back to ChEMBL document CHEMBL1128870, “Synthesis and anti-HIV activities of 2-deoxy-2,2-difluoro--L-ribofuranosyl-pyrimidine and -purine nucleosides” (Bioorg Med Chem Lett, 1995).

The test system of one assay is Vero. Description: Cytotoxic activity against HIV-1 in rapidly dividing vero cells. Type of assay: functional, cell-based. Conditions: Chlorocebus sabaeus.
Assay [1] can be described thus: Cytotoxic activity against HIV-1 in peripheral blood mononuclear (PBM) cells. The following applies: Homo sapiens. Format: functional.
Assay [2] in a line: In vitro anti-HIV activity against HIV-1 in human peripheral blood mononuclear (PBM) cells. Format: functional.

For the compound `CC(C)(C)[Si](C)(C)OC1[C@H](CO)O[C@H](n2ccc(N)nc2=O)C1(F)F` (single isomer, unassigned), the IC50 (in the assay with Vero; in assay [1]) was over 100 µM each time. Besides, in assay [2], the EC50 was over 100 µM.
For the compound `Cc1cn([C@H]2C[C@H](N=[N+]=[N-])[C@@H](CO)O2)c(=O)[nH]c1=O` [ZIDOVUDINE], in assay [1], the IC50 was over 100 µM. In assay [2], this compound gave an EC50 of 0.004 µM.
For `CC(C)(C)[Si](C)(C)OC1[C@H](CO)O[C@@H](n2ccc(N)nc2=O)C1(F)F` (single isomer, unassigned), the IC50 (in the assay with Vero; in assay [1]) was over 100 µM each time. Besides, the EC50 in assay [2] is over 100 µM.
With `Cc1cn([C@H]2O[C@@H](CO)C(O[Si](C)(C)C(C)(C)C)C2(F)F)c(=O)[nH]c1=O` (single isomer, unassigned), the IC50 (with Vero; in assay [1]) was over 100 µM in each case. Also, the EC50 in assay [2] is over 100 µM.
In the case of `Nc1ncnc2c1ncn2[C@H]1O[C@@H](CO)C(O)C1(F)F` (single isomer, unassigned), the half-maximal inhibitory concentration (IC50) (in the assay with Vero; in assay [1]) was over 100 µM in each case. The compound further came in with an EC50 in assay [2] of 3.4 µM.
Consider `Cc1cn([C@@H]2O[C@@H](CO)C(O[Si](C)(C)C(C)(C)C)C2(F)F)c(=O)[nH]c1=O` (single isomer, unassigned), for which the IC50 (in the assay on Vero; in assay [1]) was over 100 µM throughout. In addition, the EC50 in assay [2] was over 100 µM.
In the case of `Nc1ncnc2c1ncn2[C@@H]1O[C@@H](CO)C(O)C1(F)F` (single isomer, unassigned), the IC50 (in the assay on Vero; in assay [1]) was over 100 µM each time. This compound also had an EC50 in assay [2] of over 100 µM.
